From patent publication US20240085429A1, “ALTERING PROTEIN FUNCTION BY PHARMACOLOGICAL TARGETING OF MEMBRANE DOMAINS” (University of Virginia Patent Foundation, priority 2021, published 2024)

Test system: GPMVs isolated from HeLa cells
Test: High-throughput screen of the Cayman bioactive lipid library for effects on GPMV phase behavior (% phase separated vesicles, NBD-DSPE phase preference)
Parameters: species or system human
Conditions: HeLa GPMVs, RT; for Effect on Pang(ϕ): NBD-DSPE raft phase preference; for Effect on Pang(ϕ) / % phase separated z-score / Pordered z-score: final 1 μM; for % phase separated z-score / Pordered z-score: Table 4; for Pordered z-score: NBD-DSPE; for Effect on % phase separated vesicles: final drug concentration 1 μM, NBD-DSPE channel
Procedure: This approach is not practical for high throughput screening applications, which typically are performed at a single temperature. Changes in the percentage of phase-separated GPMVs were monitored at a single temperature in response to the addition of small molecules as a surrogate for measuring Tmisc directly (FIG. 1A). This approach requires that a significant fraction of GPMVs are phase separated under control conditions, such that experimentally-induced changes can be readily detected.
In phase separated vesicles these markers are enriched in their preferred domains, such that a given vesicle contains a co-existing NBD-DSPE-rich phase and a DiD-rich phase. In contrast, NBD-DSPE and DiD colocalize in a single uniform phase in GPMVs that are not phase separated. We also optimized conditions to isolate and plate GPMVs in multi-well plates.
To provide proof-of-concept, the Cayman lipid library containing ˜850 bioactive lipid-like compounds in the Vanderbilt High-throughput Screening Facility was screened, using […] of each compound across three independent screens. All screens were carried out using an automated microscope/high-content imaging system and robotic plate handler at RT. […] Compounds were initially scored based on their capacity to alter the percentage of phase separated vesicles (FIG. 2A).
HeLa cells were obtained from ATCC (cat #CCL-2) and cultured at 37° C. in 5% CO2 in a humidified tissue culture incubator. […] In brief, cells were plated in 150 mm tissue culture dishes the day before the experiment, to yield a confluence of 70-80% the day of the experiment. To generate GPMVs, cells were rinsed twice in 10 ml of GPMV buffer (2 mM DTT, 25 mM formaldehyde, 150 mM NaCl, 10 mM HEPES, 2 mM CaCl2), pH=7.4) and subsequently incubated in 12 ml of GPMV buffer at 37° C. with gentle shaking at 70 rpm for 1.5 h. The raft marker NBD-DSPE (1,2-distearoyl-sn-glycero-3-phosphoethanolamine-N-(7-nitro-2-1,3-benzoxadiazol-4-yl; Avanti Polar Lipids) and the non-raft marker DiD (1,1′-dioctadecyl-3,3,3′,3′-tetramethylindodicarbocyanine perchlorate; cat #D307 Thermo Scientific) were added from stock solutions in ethanol to the GPMV suspension at final concentrations of 5-6 μg/ml and 1 μg/ml, respectively, for the initial screenings. For some experiments, cells were prelabelled with 5 μg/ml DiD for 8 min at 4° C. and washed several times prior to GPMVs generation. Screening was performed the same day that GPMVs were generated.
[…] GPMVs suspension in GPMV buffer was then added to each well of a 96-well plate to obtain a final drug concentration of 1 μM. The GPMVs were allowed to settle to the bottom of the plates for 1.5 h prior to imaging. Samples were prepared and imaged at RT. The screen was repeated on three different days using three separately prepared batches of GPMVs (3 biological replicates).
Image acquisition was performed with an ImageXpress Micro XL automated microscope (Molecular Devices) using a Nikon 40X 0.6 NA Super Plan Fluor ELWD objective and a Lumencor Sola solid-state light source. Laser autofocus was employed at each site to obtain the best focus z-plane for each channel. […] Sixteen sites were captured per well using a 4.2 MP widefield scientific cMOS camera with a camera binning of 1. Each plate took approximately 1.3 h to image. Multiple plates were loaded to a plate carousel (ThermoScientific), shuttled to/from the ImageXpress via a ThermoScientific CRS F3 robot arm, and automatically run through the Momentum scheduling software (Thermo). To analyze the data, images and metadata were exported as TIFF files and subjected to image analysis using a custom MATLAB-based program as described below.

Row | Compound | Effect on Pang(ϕ) | % phase separated z-score | Pordered z-score | Effect on % phase separated vesicles
1 | CCCCCCCCCCCCCCCCOC[C@H](COP(=O)([O-])OCC[N+](C)(C)C)OC [2-O-methyl PAF C-16, 1-O-hexadecyl-2-O-methyl-sn-glyceryl-3-phosphorylcholine] | ↑ | −1.06 | 2.68 | –
2 | CCCCCCCCCCCCCCCCOCC(COP(=O)([O-])OCC[N+](C)(C)C)SC(C)=O (stereo not shown) [2-thio-PAF, 1-O-hexadecyl-2-deoxy-2-thio-S-acetyl-sn-glyceryl-3-phosphorylcholine] | – | −3.15 | −0.72 | ↓
3 | Cl.c1cc(N2CCNCC2)c2cnccc2c1 [8-piperazin-1-yl-Isoquinoline (hydrochloride)] | – | 2.14 | 1.61 | ↑
4 | CCCCC/C=C\C/C=C\CCCCCCCCCC(=O)O [11(Z),14(Z)-Eicosadienoic Acid] | – | −2.15 | −0.46 | ↓
5 | CCCCCCCC/C=C\CCCCCCCC(=O)OC[C@@H](COP(O)(O)=S)OC.CCN(CC)CC.CCN(CC)CC [(2S)-OMPT, 9Z-octadecenoic acid, (2S)-3-[(hydroxymercaptophosphinyl)oxy]-2-methoxypropyl ester, triethyl ammonium salt (1:2)] | – | −2.12 | −0.27 | ↓
6 | CCCCC/C=C\C/C=C\C/C=C\C/C=C\CCCC(=O)NCCF [Arachidonoyl-2′-Fluoroethylamide] | ↑ | 1.90 | 2.38 | –
7 | CCCCCCCCCCCCC/C=C/[C@@H](O)[C@H](CO)NC(=O)CCCCCCC [C8 Ceramide (d18:1/8:0)] | – | −2.87 | −0.72 | ↓
8 | CCCCCCCCCCCC1NC(C(=O)O)CS1 (stereo not shown) [CAY10444, 2-undecyl-thiazolidine-4-carboxylic acid] | ↓ | −1.61 | −2.04 | –
9 | CC1(COc2ccc(CC3SC(=O)NC3=O)cc2)CCCCC1 (stereo not shown) [Ciglitazone] | – | −2.73 | −1.71 | –
10 | COc1ccc(-c2nc(C(=O)N3CCN(C)CC3)sc2-c2ccc(OC)cc2)cc1.Cl [FR122047 (hydrochloride), 1-[[4,5-bis(4-methoxyphenyl)-2-thiazolyl]carbonyl]-4-methyl-piperazine, monohydrochloride] | ↓ | 0.12 | −2.03 | –
11 | CC(C)c1ccc2c(c1)c(SC(C)(C)C)c(CC(C)(C)C(=O)O)n2Cc1ccc(Cl)cc1 [MK-886, 1-[(4-chlorophenyl)methyl]-3-[(1,1-dimethylethyl)thio]-α,α-dimethyl-5-(1-methylethyl)-1H-indole-2-propanoic acid] | ↑ | 0.67 | 2.10 | –
12 | CCCCCCCCCCCCCCCCOC[C@H](COP(=O)([O-])OCC[N+](C)(C)C)OC(=O)NC [Methylcarbamyl PAF C-16] | ↑ | −0.58 | 2.20 | –
13 | CCCCCCCCCCCCC/C=C/[C@@H](O)[C@H](CO)N(C)C [N,N-Dimethylsphingosine (d18:1)] | – | −2.09 | −0.70 | ↓
14 | CCCCCCCCCCCCCCCC(=O)NCCS(=O)(=O)O [N-Palmitoyl Taurine] | – | 2.19 | 1.66 | ↑
15 | CCCCCCCCCCCCCCCCCC(=O)NCCS(=O)(=O)O [N-Stearoyl Taurine] | ↑ | 3.21 | 2.89 | ↑
16 | C=C(C)[C@@H]1CCC(C)=C[C@H]1c1c(C)cc(O)cc1O [O-1602, 5-methyl-4-[(1R,6R)-3-methyl-6-(1-methylethenyl)-2-cyclohexen-1-yl] -1,3-benzenediol] | – | −2.10 | −0.27 | ↓
17 | CCCCCCCC/C=C\CCCCCCCC(=O)N[C@H](CO)c1ccc(O)cc1 [OMDM-1, (S)-N-(1-(4-hydroxyphenyl)-2-hydroxyethyl) oleamide] | – | −2.62 | −0.54 | ↓
18 | CCCCCCCCCCCCCCCCOC[C@H](COP(=O)([O-])OCC[N+](C)(C)C)OC(C)=O [PAF C-16, 1-O-hexadecyl-2-O-acetyl-sn-glyceryl-3-phosphorylcholine] | – | −2.00 | 1.87 | ↓
19 | Br.CCSC(=N)N [S-ethyl Isothiourea (hydrobromide)] | ↑ | 0.85 | 2.57 | –
20 | CN(C)S(=O)(=O)c1ccc2c(c1)C(=Cc1cc3c([nH]1)CCCC3)C(=O)N2 [SU6656, 2,3-dihydro-N,N-dimethyl-2-oxo-3-[(4,5,6,7-tetrahydro-1H-indol-2-yl)methylene]-1H-indole-5-sulfonamide] | – | −2.06 | −0.42 | ↓
21 | CCCCCCCCCCCCCCOc1ccc(C(=O)O)o1 [TOFA, 5-(Tetradecyloxy)-2-furancarboxylic acid] | – | −3.41 | −1.20 | ↓
22 | O=c1[nH]c(-c2ccc(C(F)(F)F)cc2)nc2c1CSCC2 [XAV939, 3,5,7,8-tetrahydro-2-[4-(trifluoromethyl)phenyl]-4H-thiopyrano[4,3-d]pyrimidin-4-one] | – | 2.33 | 0.58 | ↑
23 | COc1ccc(/C=C\c2cc(OC)cc(OC)c2)cc1 [cis-trismethoxy Resveratrol] | – | −2.45 | −1.61 | ↓
24 | CCCCCCCCCCCCCCCCSP(=O)([O-])OCC[N+](C)(C)C [thio-Miltefosine] | ↑ | 2.12 | 2.78 | ↑
25 | (−)-Epigallocatechin Gallate | – | 4.33 | 1.42 | ↑
